{"source": "patent US20100267561A1", "about": "“HERBICIDAL PYRIDAZINONE DERIVATIVES” (priority 2007, published 2010)", "assay_in_all_cases": "Test E pre-/postemergence plant response", "type_in_all_cases": "in vivo", "details_in_all_cases": "scale 0 to 100", "key": {"[1]": {"test_system": "southern (S.) sandbur (Cenchrus echinatus)", "procedure,_shortened": "(§1)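 In this greenhouse assay, sown seeds received preemergence treatment and young plants of 2 to 18 cm (1- to 4-leaf stage) received postemergence treatment, both with compound in a non-phytotoxic solvent and surfactant vehicle. Effects were rated visually 14 to 21 days later on a 0–100 control scale.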"}, "[2]": {"test_system": "large crabgrass (Digitaria sanguinalis)", "procedure,_shortened": "as §1"}, "[3]": {"test_system": "purple nutsedge (Cyperus rotundus)", "procedure,_shortened": "as §1"}, "[4]": {"test_system": "quackgrass (Elytrigia repens)", "procedure,_shortened": "as §1"}, "[5]": {"test_system": "broadleaf signalgrass (Brachiaria platyphylla)", "procedure,_shortened": "as §1"}, "[6]": {"test_system": "green foxtail (Setaria viridis)", "procedure,_shortened": "as §1"}, "[7]": {"test_system": "dallisgrass (Paspalum dilatatum)", "procedure,_shortened": "as §1"}, "[8]": {"test_system": "johnsongrass (Sorghum halepense)", "procedure,_shortened": "as §1"}, "[9]": {"test_system": "surinam grass (Brachiaria decumbens)", "procedure,_shortened": "as §1"}, "[10]": {"test_system": "common purslane (Portulaca oleracea)", "procedure,_shortened": "as §1"}, "[11]": {"test_system": "common mallow (Malva sylvestris)", "procedure,_shortened": "as §1"}}}
{"smiles": "Cc1cc(-c2ccc(Cl)cc2)nn1-c1c(OS(C)(=O)=O)cnn(C)c1=O", "note": "[Compound 36]", "values": [{"measurement": "Plant response rating, Sandbur, S.", "setting": "[1]; 16 g ai/ha, Preemergence", "value": 90}, {"measurement": "Plant response rating, Sandbur, S.", "setting": "[1]; 31 g ai/ha, Preemergence", "value": 100}, {"measurement": "Plant response rating, Sandbur, S.", "setting": "[1]; 62 g ai/ha, Preemergence", "value": 100}, {"measurement": "Plant response rating, Sandbur, S.", "setting": "[1]; Postemergence, 8 g ai/ha", "value": 40}, {"measurement": "Plant response rating, Sandbur, S.", "setting": "[1]; Postemergence, 16 g ai/ha", "value": 65}, {"measurement": "Plant response rating, Sandbur, S.", "setting": "[1]; Postemergence, 31 g ai/ha", "value": 80}, {"measurement": "Plant response rating, Sandbur, S.", "setting": "[1]; Postemergence, 62 g ai/ha", "value": 85}, {"measurement": "Plant response rating, Crabgrass, Large", "setting": "[2]; 8 g ai/ha, Preemergence", "value": 35}, {"measurement": "Plant response rating, Crabgrass, Large", "setting": "[2]; 16 g ai/ha, Preemergence", "value": 95}, {"measurement": "Plant response rating, Crabgrass, Large", "setting": "[2]; 31 g ai/ha, Preemergence", "value": 98}, {"measurement": "Plant response rating, Crabgrass, Large", "setting": "[2]; 62 g ai/ha, Preemergence", "value": 98}, {"measurement": "Plant response rating, Crabgrass, Large", "setting": "[2]; Postemergence, 8 g ai/ha", "value": 65}, {"measurement": "Plant response rating, Crabgrass, Large", "setting": "[2]; Postemergence, 16 g ai/ha", "value": 70}, {"measurement": "Plant response rating, Crabgrass, Large", "setting": "[2]; Postemergence, 31 g ai/ha", "value": 75}, {"measurement": "Plant response rating, Crabgrass, Large", "setting": "[2]; Postemergence, 62 g ai/ha", "value": 80}, {"measurement": "Plant response rating, Nutsedge, Purple", "setting": "[3]; 16 g ai/ha, Preemergence", "value": 0}, {"measurement": "Plant response rating, Nutsedge, Purple", "setting": "[3]; 31 g ai/ha, Preemergence", "value": 0}, {"measurement": "Plant response rating, Nutsedge, Purple", "setting": "[3]; 62 g ai/ha, Preemergence", "value": 0}, {"measurement": "Plant response rating, Nutsedge, Purple", "setting": "[3]; Postemergence, 8 g ai/ha", "value": 0}, {"measurement": "Plant response rating, Nutsedge, Purple", "setting": "[3]; Postemergence, 16 g ai/ha", "value": 0}, {"measurement": "Plant response rating, Nutsedge, Purple", "setting": "[3]; Postemergence, 31 g ai/ha", "value": 0}, {"measurement": "Plant response rating, Nutsedge, Purple", "setting": "[3]; Postemergence, 62 g ai/ha", "value": 0}, {"measurement": "Plant response rating, Quackgrass", "setting": "[4]; 16 g ai/ha, Preemergence", "value": 20}, {"measurement": "Plant response rating, Quackgrass", "setting": "[4]; 31 g ai/ha, Preemergence", "value": 50}, {"measurement": "Plant response rating, Quackgrass", "setting": "[4]; 62 g ai/ha, Preemergence", "value": 70}, {"measurement": "Plant response rating, Quackgrass", "setting": "[4]; Postemergence, 8 g ai/ha", "value": 0}, {"measurement": "Plant response rating, Quackgrass", "setting": "[4]; Postemergence, 16 g ai/ha", "value": 0}, {"measurement": "Plant response rating, Quackgrass", "setting": "[4]; Postemergence, 31 g ai/ha", "value": 30}, {"measurement": "Plant response rating, Quackgrass", "setting": "[4]; Postemergence, 62 g ai/ha", "value": 35}, {"measurement": "Plant response rating, Signalgrass", "setting": "[5]; 16 g ai/ha, Preemergence", "value": 70}, {"measurement": "Plant response rating, Signalgrass", "setting": "[5]; 31 g ai/ha, Preemergence", "value": 100}, {"measurement": "Plant response rating, Signalgrass", "setting": "[5]; 62 g ai/ha, Preemergence", "value": 100}, {"measurement": "Plant response rating, Signalgrass", "setting": "[5]; Postemergence, 8 g ai/ha", "value": 10}, {"measurement": "Plant response rating, Signalgrass", "setting": "[5]; Postemergence, 16 g ai/ha", "value": 50}, {"measurement": "Plant response rating, Signalgrass", "setting": "[5]; Postemergence, 31 g ai/ha", "value": 90}, {"measurement": "Plant response rating, Signalgrass", "setting": "[5]; Postemergence, 62 g ai/ha", "value": 100}, {"measurement": "Plant response rating, Foxtail, Green", "setting": "[6]; 8 g ai/ha, Preemergence", "value": 15}, {"measurement": "Plant response rating, Foxtail, Green", "setting": "[6]; 16 g ai/ha, Preemergence", "value": 60}, {"measurement": "Plant response rating, Foxtail, Green", "setting": "[6]; 31 g ai/ha, Preemergence", "value": 95}, {"measurement": "Plant response rating, Foxtail, Green", "setting": "[6]; 62 g ai/ha, Preemergence", "value": 100}, {"measurement": "Plant response rating, Foxtail, Green", "setting": "[6]; Postemergence, 8 g ai/ha", "value": 35}, {"measurement": "Plant response rating, Foxtail, Green", "setting": "[6]; Postemergence, 16 g ai/ha", "value": 50}, {"measurement": "Plant response rating, Foxtail, Green", "setting": "[6]; Postemergence, 31 g ai/ha", "value": 75}, {"measurement": "Plant response rating, Foxtail, Green", "setting": "[6]; Postemergence, 62 g ai/ha", "value": 75}, {"measurement": "Plant response rating, Dallisgrass", "setting": "[7]; 8 g ai/ha, Preemergence", "value": 35}, {"measurement": "Plant response rating, Dallisgrass", "setting": "[7]; 16 g ai/ha, Preemergence", "value": 60}, {"measurement": "Plant response rating, Dallisgrass", "setting": "[7]; 31 g ai/ha, Preemergence", "value": 75}, {"measurement": "Plant response rating, Dallisgrass", "setting": "[7]; 62 g ai/ha, Preemergence", "value": 98}, {"measurement": "Plant response rating, Dallisgrass", "setting": "[7]; Postemergence, 8 g ai/ha", "value": 0}, {"measurement": "Plant response rating, Dallisgrass", "setting": "[7]; Postemergence, 16 g ai/ha", "value": 20}, {"measurement": "Plant response rating, Dallisgrass", "setting": "[7]; Postemergence, 31 g ai/ha", "value": 30}, {"measurement": "Plant response rating, Dallisgrass", "setting": "[7]; Postemergence, 62 g ai/ha", "value": 50}, {"measurement": "Plant response rating, Johnsongrass", "setting": "[8]; 16 g ai/ha, Preemergence", "value": 75}, {"measurement": "Plant response rating, Johnsongrass", "setting": "[8]; 31 g ai/ha, Preemergence", "value": 85}, {"measurement": "Plant response rating, Johnsongrass", "setting": "[8]; 62 g ai/ha, Preemergence", "value": 95}, {"measurement": "Plant response rating, Johnsongrass", "setting": "[8]; Postemergence, 8 g ai/ha", "value": 35}, {"measurement": "Plant response rating, Johnsongrass", "setting": "[8]; Postemergence, 16 g ai/ha", "value": 50}, {"measurement": "Plant response rating, Johnsongrass", "setting": "[8]; Postemergence, 31 g ai/ha", "value": 75}, {"measurement": "Plant response rating, Johnsongrass", "setting": "[8]; Postemergence, 62 g ai/ha", "value": 95}, {"measurement": "Plant response rating, Surinam Grass", "setting": "[9]; 16 g ai/ha, Preemergence", "value": 95}, {"measurement": "Plant response rating, Surinam Grass", "setting": "[9]; 31 g ai/ha, Preemergence", "value": 100}, {"measurement": "Plant response rating, Surinam Grass", "setting": "[9]; 62 g ai/ha, Preemergence", "value": 100}, {"measurement": "Plant response rating, Surinam Grass", "setting": "[9]; Postemergence, 8 g ai/ha", "value": 65}, {"measurement": "Plant response rating, Surinam Grass", "setting": "[9]; Postemergence, 16 g ai/ha", "value": 65}, {"measurement": "Plant response rating, Surinam Grass", "setting": "[9]; Postemergence, 31 g ai/ha", "value": 80}, {"measurement": "Plant response rating, Surinam Grass", "setting": "[9]; Postemergence, 62 g ai/ha", "value": 100}, {"measurement": "Plant response rating, Purslane", "setting": "[10]; 16 g ai/ha, Preemergence", "value": 0}, {"measurement": "Plant response rating, Purslane", "setting": "[10]; 31 g ai/ha, Preemergence", "value": 0}, {"measurement": "Plant response rating, Purslane", "setting": "[10]; 62 g ai/ha, Preemergence", "value": 0}, {"measurement": "Plant response rating, Purslane", "setting": "[10]; Postemergence, 8 g ai/ha", "value": 0}, {"measurement": "Plant response rating, Purslane", "setting": "[10]; Postemergence, 16 g ai/ha", "value": 0}, {"measurement": "Plant response rating, Purslane", "setting": "[10]; Postemergence, 31 g ai/ha", "value": 0}, {"measurement": "Plant response rating, Purslane", "setting": "[10]; Postemergence, 62 g ai/ha", "value": 0}, {"measurement": "Plant response rating, Mallow", "setting": "[11]; 16 g ai/ha, Preemergence", "value": 0}, {"measurement": "Plant response rating, Mallow", "setting": "[11]; 31 g ai/ha, Preemergence", "value": 0}, {"measurement": "Plant response rating, Mallow", "setting": "[11]; 62 g ai/ha, Preemergence", "value": 0}, {"measurement": "Plant response rating, Mallow", "setting": "[11]; Postemergence, 8 g ai/ha", "value": 0}, {"measurement": "Plant response rating, Mallow", "setting": "[11]; Postemergence, 16 g ai/ha", "value": 0}, {"measurement": "Plant response rating, Mallow", "setting": "[11]; Postemergence, 31 g ai/ha", "value": 0}, {"measurement": "Plant response rating, Mallow", "setting": "[11]; Postemergence, 62 g ai/ha", "value": 0}]}
